Source: ChEMBL document CHEMBL1201862, “PubChem BioAssay data set” (2004)
Activity calls are given as the source filed them.

Key:
Cytochrome P450 2C9 = Cytochrome P450 2C9 (Homo sapiens, UniProt P11712); conditions: Potency
Cytochrome P450 2D6 = Cytochrome P450 2D6 (Homo sapiens, UniProt P10635); experiment: qHTS Assay for Inhibitors and Substrates of Cytochrome P450 2D6. [Related pubchem assays: 410 ]; format: ADME; conditions: read-out: Potency
[1] = target: Peroxisome proliferator-activated receptor gamma/Nuclear receptor coactivator 2 (Homo sapiens, UniProt P37231); format: functional;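 further: agonist potency for raising coactivator recruitment to the receptor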
Peroxisome proliferator-activated receptor gamma/Nuclear receptor coactivator 2, sequence (P37231 whole entry): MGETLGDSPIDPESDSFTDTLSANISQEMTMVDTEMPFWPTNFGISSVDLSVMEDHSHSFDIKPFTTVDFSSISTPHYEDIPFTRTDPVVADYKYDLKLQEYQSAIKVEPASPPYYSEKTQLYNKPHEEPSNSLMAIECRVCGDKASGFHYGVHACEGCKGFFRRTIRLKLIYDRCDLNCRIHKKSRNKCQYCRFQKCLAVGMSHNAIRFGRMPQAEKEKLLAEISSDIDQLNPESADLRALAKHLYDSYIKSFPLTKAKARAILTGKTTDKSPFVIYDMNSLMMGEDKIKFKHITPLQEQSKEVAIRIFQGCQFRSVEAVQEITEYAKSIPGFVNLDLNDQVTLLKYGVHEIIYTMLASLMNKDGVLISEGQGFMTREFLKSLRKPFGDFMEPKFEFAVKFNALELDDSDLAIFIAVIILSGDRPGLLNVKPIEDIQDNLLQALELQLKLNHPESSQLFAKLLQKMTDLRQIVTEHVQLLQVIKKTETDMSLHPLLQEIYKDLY
Peroxisome proliferator-activated receptor gamma/Nuclear receptor coactivator 2, sequence (Q15596 whole entry, further chain): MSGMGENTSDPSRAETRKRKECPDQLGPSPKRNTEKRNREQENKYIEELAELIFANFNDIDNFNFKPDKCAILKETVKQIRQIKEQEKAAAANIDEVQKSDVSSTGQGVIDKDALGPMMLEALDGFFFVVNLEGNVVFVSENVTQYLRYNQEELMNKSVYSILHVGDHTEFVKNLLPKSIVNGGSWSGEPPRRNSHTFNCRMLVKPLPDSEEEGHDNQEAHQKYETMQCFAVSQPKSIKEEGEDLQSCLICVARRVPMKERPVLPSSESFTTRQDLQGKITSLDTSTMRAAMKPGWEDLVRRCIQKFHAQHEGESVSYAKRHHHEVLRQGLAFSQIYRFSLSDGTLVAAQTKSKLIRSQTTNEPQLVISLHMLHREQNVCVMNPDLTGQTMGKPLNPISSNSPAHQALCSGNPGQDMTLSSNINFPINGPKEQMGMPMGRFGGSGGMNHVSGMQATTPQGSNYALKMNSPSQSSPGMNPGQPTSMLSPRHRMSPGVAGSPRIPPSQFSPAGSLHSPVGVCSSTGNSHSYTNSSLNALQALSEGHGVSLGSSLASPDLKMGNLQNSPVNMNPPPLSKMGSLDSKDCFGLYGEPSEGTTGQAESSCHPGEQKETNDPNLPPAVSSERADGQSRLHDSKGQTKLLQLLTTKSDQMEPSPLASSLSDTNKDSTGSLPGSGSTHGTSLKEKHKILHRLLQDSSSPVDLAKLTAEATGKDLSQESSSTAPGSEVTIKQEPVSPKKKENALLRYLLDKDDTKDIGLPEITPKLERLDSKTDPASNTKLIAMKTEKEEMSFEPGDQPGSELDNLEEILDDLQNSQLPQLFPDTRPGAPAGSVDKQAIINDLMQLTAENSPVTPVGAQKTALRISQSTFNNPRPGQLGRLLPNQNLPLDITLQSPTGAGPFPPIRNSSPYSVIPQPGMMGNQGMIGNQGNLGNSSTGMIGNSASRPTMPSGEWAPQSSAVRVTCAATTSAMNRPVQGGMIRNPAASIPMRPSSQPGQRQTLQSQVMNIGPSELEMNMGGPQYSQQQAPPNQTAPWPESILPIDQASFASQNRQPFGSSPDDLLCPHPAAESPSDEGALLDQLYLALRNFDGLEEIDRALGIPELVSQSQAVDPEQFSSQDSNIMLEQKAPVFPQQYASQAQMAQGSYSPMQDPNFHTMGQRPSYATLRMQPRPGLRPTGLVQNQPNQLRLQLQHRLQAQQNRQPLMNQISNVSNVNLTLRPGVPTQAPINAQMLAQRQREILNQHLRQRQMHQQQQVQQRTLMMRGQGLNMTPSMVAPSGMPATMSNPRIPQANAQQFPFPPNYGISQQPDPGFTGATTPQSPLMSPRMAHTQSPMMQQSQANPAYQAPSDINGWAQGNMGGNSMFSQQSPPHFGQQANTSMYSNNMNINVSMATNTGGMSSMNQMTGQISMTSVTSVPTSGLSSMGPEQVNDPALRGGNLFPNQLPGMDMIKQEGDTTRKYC

[2] = target: Peroxisome proliferator-activated receptor gamma/Nuclear receptor coactivator 3 (Homo sapiens, UniProt P37231); format: functional;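 further: agonist potency for raising coactivator recruitment to the receptor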
Peroxisome proliferator-activated receptor gamma/Nuclear receptor coactivator 3, sequence (P37231 whole entry): as the sequence (P37231 whole entry) above
Peroxisome proliferator-activated receptor gamma/Nuclear receptor coactivator 3, sequence (Q9Y6Q9 whole entry, further chain): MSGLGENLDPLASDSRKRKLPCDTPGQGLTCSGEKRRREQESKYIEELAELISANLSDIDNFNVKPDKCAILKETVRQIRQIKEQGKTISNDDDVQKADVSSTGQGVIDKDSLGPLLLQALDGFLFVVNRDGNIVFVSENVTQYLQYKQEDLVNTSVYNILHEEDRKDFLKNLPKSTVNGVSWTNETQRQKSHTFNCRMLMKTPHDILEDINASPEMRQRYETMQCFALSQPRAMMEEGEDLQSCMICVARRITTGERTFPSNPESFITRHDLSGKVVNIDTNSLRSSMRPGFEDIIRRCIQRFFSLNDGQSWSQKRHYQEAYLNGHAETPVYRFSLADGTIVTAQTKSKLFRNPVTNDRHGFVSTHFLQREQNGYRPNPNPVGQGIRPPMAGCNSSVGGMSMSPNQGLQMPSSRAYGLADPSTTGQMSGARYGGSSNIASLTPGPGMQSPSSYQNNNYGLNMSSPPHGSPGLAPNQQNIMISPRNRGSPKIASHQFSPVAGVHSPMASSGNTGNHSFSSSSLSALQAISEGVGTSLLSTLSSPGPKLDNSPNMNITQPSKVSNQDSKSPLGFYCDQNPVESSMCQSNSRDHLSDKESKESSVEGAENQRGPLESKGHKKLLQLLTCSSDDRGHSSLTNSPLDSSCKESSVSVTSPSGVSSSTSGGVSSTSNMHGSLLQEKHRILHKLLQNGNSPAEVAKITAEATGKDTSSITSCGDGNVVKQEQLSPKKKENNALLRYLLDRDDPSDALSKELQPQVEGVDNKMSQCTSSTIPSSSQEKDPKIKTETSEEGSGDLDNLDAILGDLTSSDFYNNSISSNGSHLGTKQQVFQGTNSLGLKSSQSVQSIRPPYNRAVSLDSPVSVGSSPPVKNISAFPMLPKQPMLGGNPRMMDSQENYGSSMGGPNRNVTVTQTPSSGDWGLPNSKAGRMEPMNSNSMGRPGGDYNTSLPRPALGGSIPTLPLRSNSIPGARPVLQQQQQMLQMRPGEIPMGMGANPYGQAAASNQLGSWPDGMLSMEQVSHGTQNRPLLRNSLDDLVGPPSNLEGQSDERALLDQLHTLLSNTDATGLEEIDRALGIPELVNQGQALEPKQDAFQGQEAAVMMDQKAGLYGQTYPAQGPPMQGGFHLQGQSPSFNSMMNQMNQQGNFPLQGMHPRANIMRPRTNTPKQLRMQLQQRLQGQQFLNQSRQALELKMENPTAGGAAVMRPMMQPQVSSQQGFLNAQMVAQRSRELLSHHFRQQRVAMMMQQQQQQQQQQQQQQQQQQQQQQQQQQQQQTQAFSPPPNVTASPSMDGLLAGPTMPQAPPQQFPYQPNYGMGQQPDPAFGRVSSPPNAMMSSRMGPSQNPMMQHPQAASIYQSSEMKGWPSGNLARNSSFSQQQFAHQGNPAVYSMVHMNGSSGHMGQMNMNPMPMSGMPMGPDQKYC

[3] = target: Peroxisome proliferator-activated receptor gamma/Nuclear receptor coactivator 1 (Homo sapiens, UniProt P37231); format: functional;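 further: agonist potency as compounds enhance coactivator SRC-1 recruitment to PPARgamma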
Streptococcus [4] = experiment: Luminescence Microorganism-Based Dose Response Follow up to Identify Compounds Cytotoxic to Streptococcus. [Related pubchem assays: 1677 (Project Summary), 1915, 1914, 1902 (Retest at Dose), 1900 (Counter Screen), 1662 (Primary HTS)]; format: functional, organism-based
Streptokinase A = target: T1, Streptokinase A (Streptococcus pyogenes serotype M1, UniProt P10520); experiment: S. pyogenes streptokinase expression inhibitors, potency, dose response, plasminogen activation absorbance, OD405 (AID 1914); format: functional, Streptococcus pyogenes M1 GAS;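 further: secreted streptokinase activity via plasminogen activation per viability signal from cell pellet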
T1 sequence (P10520 whole entry): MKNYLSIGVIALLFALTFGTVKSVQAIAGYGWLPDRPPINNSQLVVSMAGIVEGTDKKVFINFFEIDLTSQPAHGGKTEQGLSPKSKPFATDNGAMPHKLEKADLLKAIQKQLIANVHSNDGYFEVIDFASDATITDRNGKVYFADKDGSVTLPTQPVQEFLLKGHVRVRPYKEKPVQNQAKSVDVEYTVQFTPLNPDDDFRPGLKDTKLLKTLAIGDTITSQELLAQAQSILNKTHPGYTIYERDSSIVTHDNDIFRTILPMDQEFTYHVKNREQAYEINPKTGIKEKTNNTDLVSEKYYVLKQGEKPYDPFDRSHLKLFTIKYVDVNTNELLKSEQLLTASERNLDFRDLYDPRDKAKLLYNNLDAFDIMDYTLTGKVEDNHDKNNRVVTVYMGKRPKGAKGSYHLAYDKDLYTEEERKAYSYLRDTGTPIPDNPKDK

Streptococcus [5] = experiment: Group A Streptococcus viability loss, dose response, counter-screen for streptokinase expression inhibitor project, luminescence, BacTiterGlo (AID 1915); format: functional, organism-based;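 further: potency for reduction of bacterial viability or growth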
[6] = test system: Streptococcus sp. 'group A'; experiment: growth inhibition of control SK(-) GAS strain, dose response, counter-screen for streptokinase expression inhibitor project, luminescence, kanamycin, BacTiterGlo, confirmation (AID 1900); format: functional, organism-based
Leucine aminopeptidase = target: T2, Leucine aminopeptidase (Plasmodium falciparum 3D7, UniProt Q8IL11); experiment: P. falciparum M17LAP inhibitors, primary screen, biochemical, fluorogenic H-Leu-NHMec substrate, 1536-well (AID 1619); format: functional
T2 sequence (Q8IL11 whole entry): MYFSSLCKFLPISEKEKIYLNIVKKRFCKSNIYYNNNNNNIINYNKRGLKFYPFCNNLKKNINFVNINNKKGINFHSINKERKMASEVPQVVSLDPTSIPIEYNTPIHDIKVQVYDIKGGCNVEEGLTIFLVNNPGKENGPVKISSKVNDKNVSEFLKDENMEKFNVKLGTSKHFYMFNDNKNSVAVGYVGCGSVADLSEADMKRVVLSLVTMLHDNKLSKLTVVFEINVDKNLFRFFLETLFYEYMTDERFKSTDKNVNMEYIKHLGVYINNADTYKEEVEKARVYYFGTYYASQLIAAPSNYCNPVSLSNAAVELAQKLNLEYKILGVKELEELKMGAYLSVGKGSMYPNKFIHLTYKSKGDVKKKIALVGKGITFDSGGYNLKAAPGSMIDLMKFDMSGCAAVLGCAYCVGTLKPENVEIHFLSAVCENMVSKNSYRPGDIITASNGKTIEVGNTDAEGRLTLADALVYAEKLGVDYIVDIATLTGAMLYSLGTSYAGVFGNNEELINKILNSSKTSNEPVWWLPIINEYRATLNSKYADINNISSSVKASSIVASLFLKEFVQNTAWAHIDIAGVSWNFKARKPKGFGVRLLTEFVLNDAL

[7] = target: T3, RNA-binding protein pos-1 (Caenorhabditis elegans, UniProt G5EF15); experiment: inhibitors of POS-1/mex-3 RNA binding, dose response, biochemical, fluorescence polarization (AID 1964);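 further: purified POS-1 fused to maltose binding protein made in E. coli; potency of compounds blocking POS-1 binding to fluorescent RNA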
T3 sequence (G5EF15 whole entry): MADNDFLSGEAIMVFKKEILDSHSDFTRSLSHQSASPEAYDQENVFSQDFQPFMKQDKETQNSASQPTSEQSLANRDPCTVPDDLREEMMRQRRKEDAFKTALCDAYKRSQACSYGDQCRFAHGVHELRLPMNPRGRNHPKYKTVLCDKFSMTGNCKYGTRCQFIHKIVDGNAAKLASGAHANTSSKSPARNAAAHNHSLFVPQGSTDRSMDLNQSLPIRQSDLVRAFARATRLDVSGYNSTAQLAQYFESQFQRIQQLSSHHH

[8] = target: T4, Polyadenylate-binding protein 1 (Homo sapiens, UniProt P11940); experiment: PABP1 MLLE–PAM2 interaction inhibitors, dose response, miRNA deadenylation inhibitor project, biochemical, fluorescence polarization, Cy5-PAM2 peptide, secondary (AID 602260); format: functional; conditions: read-out: IC50_Mean
T4 sequence (P11940 whole entry): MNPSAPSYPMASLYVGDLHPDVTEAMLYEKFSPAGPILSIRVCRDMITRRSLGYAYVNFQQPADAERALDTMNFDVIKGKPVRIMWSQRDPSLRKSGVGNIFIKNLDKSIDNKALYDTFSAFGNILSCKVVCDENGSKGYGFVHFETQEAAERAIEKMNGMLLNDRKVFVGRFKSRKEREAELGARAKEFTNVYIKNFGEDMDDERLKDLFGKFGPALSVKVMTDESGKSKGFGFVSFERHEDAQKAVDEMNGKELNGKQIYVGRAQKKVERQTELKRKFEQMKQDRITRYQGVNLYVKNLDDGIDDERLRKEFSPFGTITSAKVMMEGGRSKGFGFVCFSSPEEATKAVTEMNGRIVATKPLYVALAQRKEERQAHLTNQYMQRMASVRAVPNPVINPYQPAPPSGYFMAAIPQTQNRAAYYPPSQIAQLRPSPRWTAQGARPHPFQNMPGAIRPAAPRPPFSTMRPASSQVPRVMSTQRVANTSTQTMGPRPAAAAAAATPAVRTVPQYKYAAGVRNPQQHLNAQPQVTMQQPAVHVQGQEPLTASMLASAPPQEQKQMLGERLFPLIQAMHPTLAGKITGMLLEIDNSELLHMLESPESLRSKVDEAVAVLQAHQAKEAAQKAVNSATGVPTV

[9] = target: T4, Polyadenylate-binding protein 1; experiment: PABP1 MLLE–PAM2 binding inhibitor potency, dose response, biochemical, fluorescence polarization, FITC-PAM2 peptide (AID 602259); format: functional; conditions: read-out: IC50_Mean
NS3 = NS3 (Hepatitis C virus, UniProt A3EZJ3); experiment: PubChem AID 2173; parameters: species or system Hepacivirus hominis
Estrogen receptor = target: T5, Estrogen receptor (Homo sapiens, UniProt P03372);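 further: potency for inhibiting coactivator peptide recruitment to the receptor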
T5 sequence (P03372 whole entry): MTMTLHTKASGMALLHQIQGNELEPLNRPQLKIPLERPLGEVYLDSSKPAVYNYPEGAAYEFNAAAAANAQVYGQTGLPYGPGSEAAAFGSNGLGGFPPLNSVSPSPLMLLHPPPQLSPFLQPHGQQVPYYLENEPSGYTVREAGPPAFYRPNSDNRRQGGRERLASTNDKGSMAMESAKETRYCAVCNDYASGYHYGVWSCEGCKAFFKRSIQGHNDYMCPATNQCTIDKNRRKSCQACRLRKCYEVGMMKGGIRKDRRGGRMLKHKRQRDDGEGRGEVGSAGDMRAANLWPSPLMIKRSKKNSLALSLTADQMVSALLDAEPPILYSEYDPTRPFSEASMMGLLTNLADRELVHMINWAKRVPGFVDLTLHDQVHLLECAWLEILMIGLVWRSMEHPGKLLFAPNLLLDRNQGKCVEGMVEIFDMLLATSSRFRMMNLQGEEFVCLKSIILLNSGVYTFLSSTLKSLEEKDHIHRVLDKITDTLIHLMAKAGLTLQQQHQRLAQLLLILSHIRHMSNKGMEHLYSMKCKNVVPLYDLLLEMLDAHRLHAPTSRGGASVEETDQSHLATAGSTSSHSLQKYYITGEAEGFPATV

[10] = target: T6, Zinc finger protein mex-5 (Caenorhabditis elegans, UniProt Q9XUB2); experiment: MEX-5/TCR-2 RNA interaction inhibitors, dose response, biochemical, C. elegans, fluorescence polarization (AID 1960)
T6 sequence (Q9XUB2 whole entry): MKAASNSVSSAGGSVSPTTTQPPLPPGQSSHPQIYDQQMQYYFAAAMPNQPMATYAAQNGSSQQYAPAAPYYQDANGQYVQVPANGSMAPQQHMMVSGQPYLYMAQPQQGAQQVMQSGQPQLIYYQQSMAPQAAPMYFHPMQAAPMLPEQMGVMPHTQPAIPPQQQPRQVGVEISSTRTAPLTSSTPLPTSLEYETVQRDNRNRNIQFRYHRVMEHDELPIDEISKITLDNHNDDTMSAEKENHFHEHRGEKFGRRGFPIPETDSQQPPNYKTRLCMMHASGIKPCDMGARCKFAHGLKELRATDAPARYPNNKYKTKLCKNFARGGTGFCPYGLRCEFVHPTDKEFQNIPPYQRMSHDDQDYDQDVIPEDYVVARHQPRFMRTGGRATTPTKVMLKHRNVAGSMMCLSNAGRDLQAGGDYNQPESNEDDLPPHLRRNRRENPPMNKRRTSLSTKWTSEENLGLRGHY

Cytochrome P450 2D6, sequence (P10635 whole entry): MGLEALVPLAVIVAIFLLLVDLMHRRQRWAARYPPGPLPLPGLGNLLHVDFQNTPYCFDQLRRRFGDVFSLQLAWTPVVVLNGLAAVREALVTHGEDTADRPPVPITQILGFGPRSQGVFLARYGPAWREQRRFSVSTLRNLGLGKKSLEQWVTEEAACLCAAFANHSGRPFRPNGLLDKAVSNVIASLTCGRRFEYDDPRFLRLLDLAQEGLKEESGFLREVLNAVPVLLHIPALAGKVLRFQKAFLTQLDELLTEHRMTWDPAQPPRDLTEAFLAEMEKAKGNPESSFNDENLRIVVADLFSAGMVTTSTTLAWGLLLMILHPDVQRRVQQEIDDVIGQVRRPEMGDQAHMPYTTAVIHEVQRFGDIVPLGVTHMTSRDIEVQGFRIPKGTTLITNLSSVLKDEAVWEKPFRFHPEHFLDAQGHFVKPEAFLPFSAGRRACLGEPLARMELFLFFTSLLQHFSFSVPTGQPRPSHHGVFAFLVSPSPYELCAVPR

For `COC(=O)NC(/C(C(=O)OC)=C(\C)NCc1ccccc1)c1ccc(Cl)cc1` (stereo not given), the AC50 (Cytochrome P450 2C9) was 6.31 µM (inconclusive) and the AC50 (Cytochrome P450 2D6) was 5.01 µM (inconclusive).
With `CC(C)[C@@]1(NC(=O)[C@@H]2C[C@H]3c4cccc5[nH]cc(c45)C[C@@H]3N(C)C2)O[C@@]2(O)[C@H]3CCCN3C(=O)[C@@H](Cc3ccccc3)N2C1=O` the AC50 (Cytochrome P450 2D6) was 31.6 µM (inconclusive).
In the case of `O=C(CCN1C(=O)c2ccccc2C1=O)Nc1ccc(-c2nc3ccccc3o2)cc1`, the EC50 [1] is reported as 71.6 µM (not active), the EC50 [2] is reported as > 79.4 µM (not active) and the EC50 [3] is reported as 74.4 µM (not active).
With `Cc1cc(C)c(NC(=O)c2oc3ccccc3c2COc2ccccc2)c(C)c1` the EC50 (Streptococcus [4]) was 122 µM (active), the EC50 (Streptokinase A) was 6.21 µM (active) and the EC50 (Streptococcus [5]) was > 150 µM (not active).
With `Cc1ccc(-c2nn(CCC(=O)O)cc2/C=C\C(=O)c2ccc(Br)cc2)cc1` the EC50 (Streptococcus [4]) was 25.4 µM (active), the EC50 (Streptokinase A) was 2.33 µM (active) and the EC50 [6] was 4.41 µM (active). For the same molecule, the EC50 (Streptococcus [5]) was > 50 µM (not active) and the IC50 (Leucine aminopeptidase) was 34 µM (active).
With `CCOc1ccc(/C=c2\sc3nc(-c4ccco4)nn3c2=O)cc1OCC` the EC50 [7] was > 300 µM (not active), the IC50 [8] was > 66 µM (inactive) and the IC50 [9] was 48.8 µM (inactive). For the same molecule, the IC50 (NS3) was 24.7 µM (not active), the IC50 (Estrogen receptor) was > 50 µM (not active) and the EC50 [10] was > 300 µM (not active).
